From PMC5424254, “Growth Trade-Offs Accompany the Emergence of Glycolytic Metabolism in Shewanella oneidensis MR-1” (Journal of Bacteriology, 2017)

Target: T1, NagK (GlcNAc kinase) (Shewanella oneidensis, UniProt Q8EBK6)
T1 sequence (Q8EBK6 2-300): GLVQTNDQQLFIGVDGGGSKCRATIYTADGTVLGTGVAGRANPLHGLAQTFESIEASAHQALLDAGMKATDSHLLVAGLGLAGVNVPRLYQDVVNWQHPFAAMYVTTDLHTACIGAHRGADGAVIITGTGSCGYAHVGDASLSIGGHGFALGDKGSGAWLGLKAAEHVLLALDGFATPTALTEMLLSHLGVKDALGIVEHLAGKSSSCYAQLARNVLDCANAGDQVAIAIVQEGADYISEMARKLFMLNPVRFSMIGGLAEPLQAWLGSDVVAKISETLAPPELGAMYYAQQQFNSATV
Experiment: ADP-Glo kinase assay (luminescence)
Assay type: biochemical
Details: ATP; 40 mM Tris-HCl, 20 mM MgCl2, 0.1 mg/ml BSA; 0.1 to 1 mM substrate

Compound: CC(=O)N[C@H]1C(O)O[C@H](CO)[C@@H](O)[C@@H]1O (stereo partly shown) [GlcNAc, N-acetylglucosamine]
- ADP-Glo kinase assay (luminescence): NagK is able to phosphorylate glucose in addition to its known substrate, GlcNAc
